# Measurements taken from ChEMBL document CHEMBL4665710, “Myrcaulones A-C, Unusual Rearranged Triketone-Terpene Adducts from Myrciariacauliflora” (J Nat Prod, 2020).
# Calls of active or inactive are those of the source. The rule behind the calls is not given here.
# Experiments:
# [1] = system: RAW264.7; test: Anti-inflammatory activity in mouse RAW 264.7 cells assessed as reduction in LPS-induced TNF-alpha production preincubated for 2 hrs followed by LPS-stimulation measured after 24 hrs by ELISA; type: functional, cell-based; conditions: time 26.0 hrs
# [2] = system: RAW264.7; test: Anti-inflammatory activity in mouse RAW 264.7 cells assessed as reduction in LPS-induced nitric oxide production preincubated for 2 hrs followed by LPS-stimulation measured after 24 hrs by Griess reagent method; type: functional, cell-based; conditions: time 26.0 hrs
# [3] = system: RAW264.7; test: Anti-inflammatory activity in mouse RAW 264.7 cells assessed as reduction in LPS-induced TNF-alpha production at 7 uM preincubated for 2 hrs followed by LPS-stimulation measured after 24 hrs by ELISA; type: functional, cell-based; conditions: time 26.0 hrs
# [4] = system: RAW264.7; test: Anti-inflammatory activity in mouse RAW 264.7 cells assessed as reduction in LPS-induced nitric oxide production at 7 uM preincubated for 2 hrs followed by LPS-stimulation measured after 24 hrs by Griess reagent method; type: functional, cell-based; conditions: time 26.0 hrs
# [5] = system: RAW264.7; test: Cytotoxicity against mouse RAW 264.7 cells assessed as reduction in cell viability by MTT assay; type: cell-based
SMILES,Activity [1],Activity [2],Activity [3],Activity [4],Activity [5]
CO[C@@]1(C(C)=O)CC2=C(C1=O)[C@H](C(C)C)C[C@@]1(CC[C@H]3C[C@@H]1C3(C)C)O2,Dose-dependent effect,Dose-dependent effect,Active,Active,Non-Toxic
CC[C@H](C)[C@H]1C[C@@]2(CC[C@H]3C[C@@H]2C3(C)C)OC2=C1C(=O)[C@](OC)(C(C)=O)C2,Dose-dependent effect,Dose-dependent effect,Active,Active,Non-Toxic
